Assay results from US20110053901A1, “ACETYL MIMIC COMPOUNDS FOR THE INHIBITION OF ISOPRENYL-S-CYSTEINYL METHYLTRANSFERASE” (SIGNUM BIOSCIENCES, INC., priority 2008, published 2011).

Assays:
[1] = biological target: membrane-associated isoprenyl-S-cysteinyl methyltransferase (Homo sapiens, UniProt O60725); conditions: cited from earlier work
dermal inflammation = conditions: mice; cited from earlier work
TPA-treated ears of mice [2] = assay: Mouse ear model of TPA-induced contact inflammation: edema inhibition (ear thickness); assay type: in vivo; conditions: topical on TPA-treated mouse ear, 24 hours; for inhibition in vivo at 0.2 mg: dose 0.2 mg/20 μL; for inhibition in vivo at 0.8 mg: dose 0.8 mg/20 μL
Description: (§1) G. et al., Anti-inflammatory Drugs, Clin. Pharmacol. Ther. 16, 900-4 (1974); Young et al., Tachyphylaxis in 12-Otetradecanoylphorbolacetate-and Arachidonic Acid-Induced Ear Edema; J. Invest. Dermatol. 80:48-52, (1983); Tramposch et al., In Vivo Models of Inflammation, (Morgan D W, Marshall L A eds), Birkha{umlaut over ( )}user Verlag: Basel, pp 179-204, 1999; and Gordon et al., Topical N-Acetyl-S-Farnesyl-L-Cysteine Inhibits Mouse Skin Inflammation, and Unlike Dexamethasone, Its Effects Are Restricted to the Application Site, J. Invest. Dermatol., 128(3):643-54, 2008 March)]. Moreover, the mouse ear model has been used by various groups to identify and compare members of differing classes of anti-inflammatory agents with multiple mechanisms of action (reviewed in Tramposch et al., 1999, supra).
The protocol for inducing in vivo acute contact inflammation on the ears of live mice has been described elsewhere (reviewed in Tramposch, 1999, supra). In brief, mice were sedated and their ears were treated with 1.2 μg/20 uL TPA (i.e., tetradecanoylphorbol-13-acetate). […] After 24 hours, the mice were sacrificed and edema was measured by taking micrometer readings of each ear. The percent inhibition of edema was determined by taking the average ear thickness of compound-treated ears and dividing it by the average thickness of 12 ears that only received TPA and subtracting that value from 100%. These values were corrected for the thickness of normal, non TPA-treated mouse ears of littermate controls. […] ED50 values were calculated as described in Gordon et al., “Topical N-acetyl-S-farnesyl-L-cysteine Inhibits Mouse Skin Inflammation, and Unlike Dexamethasone, its Effects Are Restricted to the Application Site”, J. Invest. Derm., Vol. 128 pp. 643-654 (2008).

[3] = tested on: myeloperoxidase (MPO), neutrophil marker in TPA-treated ears; assay: Mouse ear model of TPA-induced contact inflammation: MPO inhibition (dermal neutrophil infiltration); assay type: in vivo; conditions: topical on TPA-treated mouse ear, 6 mm biopsy punches; for inhibition in vivo at 0.2 mg: dose 0.2 mg/20 μL; for inhibition in vivo at 0.8 mg: dose 0.8 mg/20 μL
Description: as §1
To assay for inhibition of dermal neutrophil infiltration by S-isoprenyl and S-farnesyl cysteine compounds, a standard method was used (see Bradley et al., 1982, supra; Young et al., 1983, supra; De Young et al, “Edema and Cell Infiltration in the Phorbol Ester-treated Mouse Ear are Temporally Separate and can be Differentially Modulated by Pharmacologic Agents”, Agents Actions, 26(3-4): 335-41 (March 1989); and Rao et al. (1993) Comparative Evaluation of Arachidonic Acid (AA)-and Tetradecanoylphorbol Acetate (TPA)-Induced Dermal Inflammation, Inflammation 17:723-41). Briefly, we homogenized 6 mm biopsy punches taken from both compound-treated ears as well as TPA-treated and non-treated control groups. We quantitated the levels of MPO by a colorimetric reaction that was measured spectrophotometrically. The percent inhibition of neutrophil infiltration by each S-isoprenyl and S-farnesyl cysteine compound was determined by comparing the average MPO levels in the presence and absence of these compounds. The calculation for percent inhibition of MPO was determined similar to that as described for calculating the percent edema inhibition, see the Edema Inhibition protocol, supra. […] Gordon et al., “Topical N-acetyl-S-farnesyl-L-cysteine Inhibits Mouse Skin Inflammation, and Unlike Dexamethasone, its Effects Are Restricted to the Application Site”, J. Invest. Derm., Vol. 128 pp. 643-654 (2008).

TPA-treated ears of mice [4] = assay: Mouse ear model of TPA-induced contact inflammation: erythema inhibition (Δa* redness, chroma meter); assay type: in vivo; conditions: dose 0.2 mg/20 μL, topical on TPA-treated mouse ear, 24 hours post treatment
Description: as §1
Another well documented biomarker of skin inflammation is skin redness, termed erythema, which is caused by capillary congestion and dilation in response to various chemical and environmental insults (see Denig, N. I. et al., Irritant Contact Dermatitis. Clues to Causes, Clinical Characteristics, and Control, Postgrad Med., May (1998); 103(5):199-200, 207-8, 212-3). […]

Chain of membrane-associated isoprenyl-S-cysteinyl methyltransferase (O60725 whole entry): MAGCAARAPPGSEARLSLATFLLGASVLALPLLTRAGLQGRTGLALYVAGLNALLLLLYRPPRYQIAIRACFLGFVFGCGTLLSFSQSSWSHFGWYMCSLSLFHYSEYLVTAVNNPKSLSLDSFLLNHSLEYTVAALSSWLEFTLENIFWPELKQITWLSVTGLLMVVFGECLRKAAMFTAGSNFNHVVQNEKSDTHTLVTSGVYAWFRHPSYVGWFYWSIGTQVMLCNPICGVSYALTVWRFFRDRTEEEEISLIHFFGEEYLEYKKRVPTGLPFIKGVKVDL

Structure (SMILES) | inhibition in vivo at 0.2 mg (TPA-treated ears of mice [2]) [%] | inhibition in vivo at 0.8 mg (TPA-treated ears of mice [2]) [%] | inhibition in vivo at 0.8 mg [3] [%] | further results
CC(=O)N[C@@H](CSC/C=C(\C)CC/C=C(\C)CCC=C(C)C)C(=O)O [AFC, N-acetyl-S-farnesyl-L-cysteine] | – | – | – | inhibition of isoprenyl-S-cysteinyl methyltransferase (mode) [1]: competitive inhibitor; effect on dermal inflammation (dermal inflammation): effectively reduces dermal inflammation
CNC(=S)N[C@@H](CSC/C=C(\C)CC/C=C(\C)CCC=C(C)C)C(=O)O [Compound A] | 8.55 ± 3.7 | – | – | inhibition in vivo at 0.2 mg [3]: 8.8 ± 6.29%
CC(C)=CCC/C(C)=C/CC/C(C)=C/CSC[C@H](NC(=O)N1CCCCC1)C(=O)O [Compound D] | – | 32.6 | 83.7 | –
CC(C)=CCC/C(C)=C/CC/C(C)=C/CSC[C@H](NC(=O)N(c1ccccc1)c1ccccc1)C(=O)O [Compound F] | – | 4.66 | 79.5 | –
CC(C)=CCC/C(C)=C/CC/C(C)=C/CSC[C@H](NC(=O)N1CCOCC1)C(=O)O [Compound C] | – | 34.1 | 61.8 | –
CC/N=C(\NCC)N[C@@H](CSC/C=C(\C)CC/C=C(\C)CCC=C(C)C)C(=O)O [Compound B] | – | – | – | % Inhibition Erythema (TPA-treated ears of mice [4]): 0.51 ± 10.81 — %
CC(C)=CCC/C(C)=C/CC/C(C)=C/CSC[C@H](Nc1ncccn1)C(=O)O [Compound J] | 1.89 ± 7.75 | – | – | –
CC(C)=CCC/C(C)=C/CC/C(C)=C/CSC[C@H](Nc1ccnc(N)n1)C(=O)O [Compound H] | 39.7 ± 1.67 | 50.1 | 89 | inhibition in vivo at 0.2 mg [3]: 63.5 ± 7.03%
CC(C)=CCC/C(C)=C/CC/C(C)=C/CSC[C@H](NC(=O)Nc1ccccc1)C(=O)O [Compound E] | – | 18.2 | 75.4 | –
CC(C)=CCC/C(C)=C/CC/C(C)=C/CSC[C@H](NC(=O)N1CCNC1=O)C(=O)O [Compound G] | – | 13.4 | 58 | –
CC(C)=CCC/C(C)=C/CC/C(C)=C/CSC[C@H](Nc1ccnc(NN)n1)C(=O)O [Compound I] | 24.7 ± 16.5 | – | – | inhibition in vivo at 0.2 mg [3]: 23.1 ± 6.79%
